The values below come from US20090311295A1, “PARTICLES WITH HIGH UNIFORM LOADING OF NANOPARTICLES AND METHODS OF PREPARATION THEREOF” (priority 2006, published 2009).

A short description of data set [1]: X-ray diffraction (XRD) crystallinity. Format: physicochemical. To be noted: crystalline area divided by total scan area.
Description: X-ray diffraction (XRD) was carried out on the raw materials of PS, PMMA and brilliant blue G. Crystallinity of these materials was calculated by dividing the crystalline area (obtained by subtracting amorphous region) by the total scan area. […] XRD was then run on the melt mixtures of brilliant blue G with PS and PMMA.
The nature of data set [2]: Solubility of raw materials and polymer melt mixtures. To be noted: for MeCl2 Solubility: methylene chloride, Table III; for solubility in organics: organic solvents.

In the case of `O=C1/C(=C2\Nc3ccc(S(=O)(=O)[O-])cc3C2=O)Nc2ccc(S(=O)(=O)[O-])cc21.[Na+].[Na+]` [FD&C blue #2], the “XRD % Crystallinity” value in data set [1] came to 36.4%. In data set [2], the “MeCl2 Solubility” value was “−”, the “solubility in organics” value is reported as “insoluble in most organics” and the “water solubility” value is “very water soluble”.
On the same counts, the results for `[Cu+2].c1ccc2c(c1)-c1nc-2nc2[n-]c(nc3nc(nc4[n-]c(n1)c1ccccc41)-c1ccccc1-3)c1ccccc21` [Copper(II) phthalocyanine] are 67.1%, “−”, “insoluble in most organics” and “water insoluble”.
As for `CCOc1ccc(Nc2ccc(/C(=C3C=C/C(=[N+](/CC)Cc4cccc(S(=O)(=O)[O-])c4)C=C/3C)c3ccc(N(CC)Cc4cccc(S(=O)(=O)[O-])c4)cc3C)cc2)cc1.[Na+]` [Brillian blue G, Brilliant blue G], the “XRD % Crystallinity” value in data set [1] is reported as 22.3%.
Chlorophyll: in data set [1], the “XRD % Crystallinity” value is reported as 19.1%. In addition, in data set [2], the “MeCl2 Solubility” value is on record as “−”, the “solubility in organics” value was “insoluble in most organics” and the “water solubility” value is “water soluble”.
For `CC1(C)C(/C=C/C=C/C=C/C=C2\N(CCCCS(=O)(=O)O)c3ccc4ccccc4c3C2(C)C)=[N+](CCCCS(=O)(=O)[O-])c2ccc3ccccc3c21` [Indocyanine green] the same measures were 24.8%, “−”, “insoluble in most organics” and “very water soluble”.
In the case of `CCN(Cc1cccc(S(=O)(=O)[O-])c1)c1ccc(C(=C2C=CC(=[N+](CC)Cc3cccc(S(=O)(=O)[O-])c3)C=C2)c2ccccc2S(=O)(=O)[O-])cc1.[Na+].[Na+]` [FD&C blue #1], in data set [2], the “MeCl2 Solubility” value was “−”, the “solubility in organics” value was “insoluble in most organics” and the “water solubility” value is “very water soluble”.
As to `CC1=C(/C=C/C(C)=C/C=C/C(C)=C/C=C/C=C(C)/C=C/C=C(C)/C=C/C2=C(C)CCCC2(C)C)C(C)(C)CCC1` [beta-Carotene, β-carotene], in data set [2], the “MeCl2 Solubility” value is “+”, the “solubility in organics” value is reported as “slightly soluble in some organics” and the “water solubility” value is “nearly water insoluble”.
